From US12552844B2, “De-epitoped alpha gliadin and use of same for the management of celiac disease and gluten sensitivity” (Ukko Inc., priority 2019, dated 2026)
pIC50: −log10 of the molar value. Where no end group is shown, it is not given here.

The sequences below were run against MHC II molecules (assay: MHC/peptide competition binding assay with a radiolabelled known MHC binding peptide). Settings: purified MHC, incubation 2-4 days, non-binding defined as IC50≥30,000 nM.
Experimental: Measurement of MHC/peptide interactions: Computational prediction algorithm was used to generate a list of putative non-binding peptides. Those peptides were synthesized and binding to MHC was measured as described in Sidney J et al, 2013.
Briefly, competition assays using different concentrations of WT and modified gluten peptides are conducted by diluting the peptides in NP40 buffer, and incubation for 2-4 days with purified MHC and a radiolabelled known MHC binding peptide. MHC II molecules are purified by affinity chromatography, and peptides are radiolabeled using the chloramine T method. After an incubation period, the bound and unbound radiolabeled species are separated, and their relative amounts are determined by either size-exclusion gel-filtration chromatography or monoclonal antibody capture of MHC. The percent of bound radioactivity is then determined. For each modified peptide, IC50 values of WT and modified peptide are calculated. The validated gluten peptide epitopes are analyzed for MHC binding as a positive control. Some of the peptides are tested also in a deamidated form.

Sequence	pIC50
PQPFPPLPYPQPQSF [Variant P3i]	< 4.40
QLPYSQPHRPYHQPQ [Variant P2d]	< 4.40
PGGQPHLPGGQPQPF [Variant P3g]	< 4.40
FPPQPHPFPPQPQPF [Variant P3h]	< 4.40
PYSQPHRPYHQPQPF [Variant P3e]	< 4.40
SLPMPQPSLRYRQPS [Variant P2i]	< 4.40

Further lines, results first:

pIC50	Sequence
< 4.40	TLPSPQPTLGYGQPT [Variant P2h]
< 4.40	HLPGPQPHLSYPQPH [Variant P2e]
4.51	LQLQPFPQPPLPYGQ [Variant P1e]
4.41	LQLQPFPQPHLFPPQ [Variant P1c]
